Results on 1 sequence are retold here after article PMC11232398, “Antimalarial activity of cecropin antimicrobial peptides derived from Anopheles mosquitoes” (Antimicrobial Agents and Chemotherapy, 2024).

For this assay, the system named is methyl-β-cyclodextrin-treated RBCs. The experiment in a line: Hemolytic activity on cholesterol-depleted erythrocytes. Type of assay: cell-based, human. Particulars: RBCs treated with 7.5 mM methyl-β-cyclodextrin for 2 hours at 37°C. The source says:
Cholesterol is the main component of the RBC membrane and is important for maintaining its stability ([39]). Plasmodium falciparum infection efficiently depletes the red blood cells of cholesterol, which renders […] membranes susceptible to lysis ([40]). Therefore, methyl-β-cyclodextrin treatment was used to simulate the RBC cholesterol depletion caused by infection with Plasmodium. RBCs were washed once and then resuspended with PBS at 0.5% hematocrit. After treatment with the indicated concentration (7.5 mM) of methyl-β-cyclodextrin (Sigma) in RPMI for 2 hours at 37°C, the treated RBCs were washed with PBS and hemolysis assays were performed as described above. Two independent tests with five technical replicates were performed for each hemolysis assay.

In the case of “APRWKFGKRLEKLGRNVFRAA KKALPVIAGYKAL-NH2 [An-cecB]”, the “hemolysis of cholesterol-depleted erythrocytes” value is “significantly higher than that of controls”.
